From US20180092883A1, “PHOSPHATASE INHIBITORS FOR TREATING OCULAR DISEASES” (Aerpio Therapeutics, Inc., priority 2010, published 2018)

System: Rhodopsin/VEGF transgenic mice
Assay: Retinal/subretinal neovascularization in rho/VEGF transgenic mice (Study 3; GSA lectin, image analysis)
Type: in vivo, mouse
Details: s.c. b.i.d. for 7 days, 3 mg/kg/dose, vs vehicle
Protocol: Thirty (30) Rhodopsin/VEGF transgenic mice having constitutive expression of VEGF in their retinal neurons were divided into three equal groups. At day 14 post natal each group received subcutaneous injections as follows: Group 1 received 10 mg/kg/injection (high dose) of a compound from Table XXI; Group 2 received 3 mg/kg/injection (low dose) of a compound from Table XXI; and Group 3 received injections of vehicle. Each animal received two injections per day for 7 days.
At P21, mice were sacrificed; eyes were harvested and fixed in 10% PBS-buffered formalin for 2 hours at room temperature. […] After 3 washes with PBST, retinas were mounted and imaged by fluorescence microscopy. Areas of retinal neovascularization were assessed using image analysis software (ImagePro Plus 5). […]
Transgenic mice in which the rhodopsin promoter drives expression of VEGF in photoreceptors (rho/VEGF mice) have onset of VEGF expression at P7 and starting at P10 develop sprouts of neovascularization from the deep capillary bed of the retina that grow through the photoreceptor layer and form an extensive network of new vessels in the subretinal space. […] FITC conjugated GSA was used to stain the retinas at room temperature for 2 hours and then the retinas were flat mounted with the photoreceptor side up and examined by fluorescence microscopy. […]

Q: Which “neovascular tufts / new blood vessels in the retina at P21 (micrograph FIG. 3B)” value does the source give for `COC(=O)N[C@@H](Cc1ccccc1)C(=O)N[C@@H](Cc1ccc(NS(=O)(=O)O)cc1)c1csc(-c2cccs2)n1` [D91] here?
A: marked reduction of neovascular tufts
